Measurements as given in patent US9586931B2 (Merck Sharp & Dohme Corp., priority 2012, dated 2017).

The molecules below were run against T1, recombinant human GST-Syk (Homo sapiens, UniProt P43405) (assay: Homogeneous Time-Resolved Fluorescence (HTRF) assay for the recombinant human Syk enzyme). Settings: recombinant human GST-Syk 5 pM, ATP 25 μM, 10-dose titration 10 μM to 0.508 nM; read-out: rhSYK Activity IC50.
T1 construct: purchased Carna Biosciences 08-176
Assay type: biochemical
Procedure, shortened: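 GST-hSyk fusion protein phosphorylated a peptide for 45 min at room temperature. The reaction was quenched with 2 nM Eu-anti-phosphotyrosine antibody and 70 nM SA-APC in 15 mM Tris pH 7.5, 40 mM EDTA, 0.01% Tween 20. The HTRF signal was read after 30 min.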

Row | SMILES | IC50
1 | COCC(C)(C)NC(=O)Cn1cc(-c2cc(C)cc(Nc3nccc(C(F)(F)F)n3)c2)nn1 [Example 5.67, N-(2-methoxy-1,1-dimethylethyl)-2-[4-(3-methyl-5-{[4-(trifluoromethyl)pyrimidin-2-yl]amino}phenyl)-1H-1,2,3-triazol-1-yl]acetamide] | 296 nM
2 | CCOC(=O)C(C)(C)Cc1cn(-c2cc(C)cc(Nc3nccc(C(F)(F)F)n3)c2)nn1 [Example 15.15, ethyl 2,2-dimethyl-3-[1-(3-methyl-5-{[4-(trifluoromethyl)pyrimidin-2-yl]amino}phenyl)-1H-1,2,3-triazol-4-yl]propanoate] | 255 nM
3 | Cc1cc(Nc2nccc(C(F)F)n2)cc(-c2cn(C(C)C3CNC(=O)O3)nn2)c1 (single isomer, unassigned) [Example 7.2, 5-(1-(4-(3-((4-(Difluoromethyl)pyrimidin-2-yl)amino)-5-methylphenyl)-1H-1,2,3-triazol-1-yl)ethyl)oxazolidin-2-one] | 3.3 nM
4 | Cc1cc(Nc2nccc(C(F)F)n2)cc(-c2cn(CC(C)(O)CC#N)nn2)c1 (single isomer, unassigned) [Example 27.2, 4-(4-(3-((4-(Difluoromethyl)pyrimidin-2-yl)amino)-5-methylphenyl)-1H-1,2,3-triazol-1-yl)-3-hydroxy-3-methylbutanenitrile] | 21.1 nM
5 | Cc1cc(Nc2nccc(C(F)F)n2)cc(-c2cn(CC3CNCCO3)nn2)c1 (single isomer, unassigned) [Example 22.1, 4-(Difluoromethyl)-N-(3-methyl-5-(1-(morpholin-2-ylmethyl)-1H-1,2,3-triazol-4-yl)phenyl) pyrimidin-2-amine] | 14.3 nM
6 | COc1ccc2[nH]c3c(c2c1)CCN(C(=O)C(C)n1cc(-c2cc(C)cc(Nc4cc(C(F)(F)F)ccn4)n2)nn1)C3 (stereo not drawn) [Example 1.48, 6-{1-[2-(6-methoxy-1,3,4,9-tetrahydro-2H-beta-carbolin-2-yl)-1-methyl-2-oxoethyl]-1H-1,2,3-triazol-4-yl}-4-methyl-N-1.[4-(trifluoromethyl)pyridin-2-yl]pyridin-2-amine] | 257 nM
7 | COc1ccnc(Nc2cc(C)cc(-c3cn(CC(C)(O)C(C)(C)O)nn3)c2)n1 (stereo not drawn) [Example 21.12, 1-(4-{3-[(4-methoxypyrimidin-2-yl)amino]-5-methylphenyl}-1H-1,2,3-triazol-1-yl)-2,3-dimethylbutane-2,3-diol] | 28.3 nM
8 | Cc1cc(Nc2nccc(C(F)(F)F)n2)cc(-c2cn(CC3(O)CCC(C(=O)O)C(C)(C)C3)nn2)c1 (single isomer, unassigned) [Example 3.2, (R or S) 4-hydroxy-2,2-dimethyl-4-{[4-(3-methyl-5-{[4-(trifluoromethyl)pyrimidin-2-yl]amino}phenyl)-1H-1,2,3-triazol-1-yl]methyl}cyclohexanecarboxylic acid] | 46.8 nM
9 | Cc1cc(Nc2ncc(F)c(C(F)F)n2)cc(-c2cn(CC3CNC(=O)O3)nn2)c1 (single isomer, unassigned) [Example 7.35, 5-{[4-(3-{[4-(difluoromethyl)-5-fluoropyrimidin-2-yl]amino}-5-methylphenyl)-1H-1,2,3-triazol-1-yl]methyl}-1,3-oxazolidin-2-one] | 7.6 nM

Second part, the molecule after the results:

Row | IC50 | SMILES
10 | 56 nM | Cc1cc(Nc2nccc(C)n2)cc(-c2cn(C3CCCCC3O)nn2)c1 (single isomer, unassigned) [Example 7.22, 2-(4-{3-methyl-5-[(4-methylpyrimidin-2-yl)amino]phenyl}-1H-1,2,3-triazol-1-yl)cyclohexanol]
11 | 3.9 nM | Cc1cc(Nc2cc(C(F)F)ccn2)nc(-c2cn(C3CCCCC3O)nn2)c1 (single isomer, unassigned) [Example 7.23, 2-[4-(6-{[4-(difluoromethyl)pyridin-2-yl]amino}-4-methylpyridin-2-yl)-1H-1,2,3-triazol-1-yl]cyclohexanol]
12 | 3 nM | Cc1cc(Nc2cc(C(F)(F)F)ccn2)nc(-c2cn(CC(O)CN)nn2)c1 (stereo not drawn) [Example 4.22, 1-amino-3-[4-(4-methyl-6-{[4-(trifluoromethyl)pyridin-2-yl]amino}pyridin-2-yl)-1H-1,2,3-triazol-1-yl]propan-2-ol]
13 | 2700 nM | COc1cc2c(cc1OC)CN(C(=O)C(C)n1cc(-c3cc(C)cc(Nc4cc(C(F)(F)F)ccn4)n3)nn1)C(C)C2 (stereo not drawn) [Example 1.34, 6-{1-[2-(6,7-dimethoxy-3-methyl-3,4-dihydroisoquinolin-2(1H)-yl)-1-methyl-2-oxoethyl]-1H-1,2,3-triazol-4-yl}-4-methyl-N-[4-(trifluoromethyl)pyridin-2-yl]pyridin-2-amine]
14 | 62.9 nM | COC(=O)C(c1ccc(F)cc1)n1cc(-c2cc(C)cc(Nc3cc(C(F)(F)F)ccn3)n2)nn1 (racemic) [Example 5.26, methyl (4-fluorophenyl)[4-(4-methyl-6-{[4-(trifluoromethyl)pyridin-2-yl]amino}pyridin-2-yl)-1H-1,2,3-triazol-1-yl]acetate]
15 | 58.6 nM | COCC(O)Cn1cc(-c2cc(C)cc(Nc3nccc(C(F)(F)F)n3)c2)nn1 (racemic) [Example 5.53, 1-methoxy-3-[4-(3-methyl-5-{[4-(trifluoromethyl)pyrimidin-2-yl]amino}phenyl)-1H-1,2,3-triazol-1-yl]propan-2-ol]
16 | 10.5 nM | Cc1cc(Nc2cc(C(F)(F)F)ccn2)nc(-c2cn(C3CN(C(=O)C(C)O)CC3O)nn2)c1 (single isomer, unassigned) [Example 13.3, 1-[2-hydroxypropanoyl]-4-[4-(4-methyl-6-{[4-(trifluoromethyl)pyridin-2-yl]amino}pyridin-2-yl)-1H-1,2,3-triazol-1-yl]pyrrolidin-3-ol]
17 | 4 nM | Cc1cc(Nc2cc(C(F)(F)F)ccn2)nc(-c2cn(C3CCCCC3O)nn2)c1 (racemic) [Example 5.89, 2-[4-(4-methyl-6-{[4-(trifluoromethyl)pyridin-2-yl]amino}pyridin-2-yl)-1H-1,2,3-triazol-1-yl]cyclohexanol]
18 | 30.7 nM | Cc1cc(Nc2nccc(C(F)F)n2)cc(-c2cn(C3CCCC(C)(O)C3O)nn2)c1 (single isomer, unassigned) [Example 29.2, 3-(4-(3-((4-(Difluoromethyl)pyrimidin-2-yl)amino)-5-methylphenyl)-1H-1,2,3-triazol-1-yl)-1-methylcyclohexane-1,2-diol]
19 | 15 nM | Cc1cc(Nc2cc(C(F)(F)F)ccn2)nc(-c2cn(C3CN(C(=O)C(C)O)CC3O)nn2)c1 (single isomer, unassigned) [Example 13.4, 1-[2-hydroxypropanoyl]-4-[4-(4-methyl-6-{[4-(trifluoromethyl)pyridin-2-yl]amino}pyridin-2-yl)-1H-1,2,3-triazol-1-yl]pyrrolidin-3-ol]
20 | 7.3 nM | Cc1cc(Nc2nccc(C(F)F)n2)cc(-c2cn(C3CCCC(O)C3O)nn2)c1 (single isomer, unassigned) [Example 25.2, 3-(4-(3-((4-(difluoromethyl)pyrimidin-2-yl)amino)-5-methylphenyl)-1H-1,2,3-triazol-1-yl)cyclohexane-1,2-diol]
21 | 14.9 nM | Cc1cc(Nc2nccc(C(F)(F)F)n2)cc(-c2cn(CCO)nn2)c1 [Example 5.1, 2-(4-(3-Methyl-5-((4-(trifluoromethyl)pyrimidin-2-yl)amino)phenyl)-1H-1,2,3-triazol-1-yl)ethanol]
